In ChEMBL document CHEMBL1909046, “DrugMatrix in vitro pharmacology data”:

Key:
[1] = target: T1, Receptor-type tyrosine-protein phosphatase C (Homo sapiens, UniProt P08575); parameters: species or system Escherichia coli;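 also: inhibition of CD45 enzyme activity measured using DiFMUP as substrate; in other assays of this panel Not Active means under 50% inhibition at 10 µM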
T1 sequence (P08575 whole entry): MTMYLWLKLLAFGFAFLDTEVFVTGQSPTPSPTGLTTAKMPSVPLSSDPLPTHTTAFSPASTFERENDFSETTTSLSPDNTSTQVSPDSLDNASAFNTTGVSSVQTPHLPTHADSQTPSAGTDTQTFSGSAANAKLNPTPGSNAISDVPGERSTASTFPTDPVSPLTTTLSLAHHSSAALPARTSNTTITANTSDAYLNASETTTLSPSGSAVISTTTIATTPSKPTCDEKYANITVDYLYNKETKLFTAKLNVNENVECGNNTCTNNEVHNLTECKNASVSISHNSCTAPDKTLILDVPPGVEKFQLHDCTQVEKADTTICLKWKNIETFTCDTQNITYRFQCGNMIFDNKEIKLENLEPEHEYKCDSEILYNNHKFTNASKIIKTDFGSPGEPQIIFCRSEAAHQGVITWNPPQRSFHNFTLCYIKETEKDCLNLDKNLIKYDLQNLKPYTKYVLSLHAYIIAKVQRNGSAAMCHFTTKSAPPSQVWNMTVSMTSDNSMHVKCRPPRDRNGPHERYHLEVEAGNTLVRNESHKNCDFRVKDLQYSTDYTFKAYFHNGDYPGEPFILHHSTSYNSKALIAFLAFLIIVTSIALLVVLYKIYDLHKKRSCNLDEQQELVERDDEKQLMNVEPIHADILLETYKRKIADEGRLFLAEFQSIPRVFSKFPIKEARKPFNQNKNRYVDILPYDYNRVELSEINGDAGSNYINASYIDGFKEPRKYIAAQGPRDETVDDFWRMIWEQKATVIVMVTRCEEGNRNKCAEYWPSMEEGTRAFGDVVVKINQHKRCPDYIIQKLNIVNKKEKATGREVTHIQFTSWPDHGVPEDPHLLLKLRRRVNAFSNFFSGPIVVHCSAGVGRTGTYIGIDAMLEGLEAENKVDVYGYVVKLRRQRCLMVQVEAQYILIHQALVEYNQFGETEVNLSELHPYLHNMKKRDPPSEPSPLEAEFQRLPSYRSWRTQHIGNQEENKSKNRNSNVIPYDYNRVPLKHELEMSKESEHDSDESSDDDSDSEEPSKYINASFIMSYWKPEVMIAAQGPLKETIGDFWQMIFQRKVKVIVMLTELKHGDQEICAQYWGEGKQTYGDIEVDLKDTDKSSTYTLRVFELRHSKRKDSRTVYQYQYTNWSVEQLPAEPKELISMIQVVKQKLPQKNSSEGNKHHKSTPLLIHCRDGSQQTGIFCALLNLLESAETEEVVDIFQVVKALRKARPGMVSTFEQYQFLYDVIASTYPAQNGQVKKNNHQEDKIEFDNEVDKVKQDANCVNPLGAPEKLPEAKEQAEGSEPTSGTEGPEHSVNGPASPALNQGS

[2] = DRUGMATRIX: Glutamate, AMPA radioligand binding (ligand: [3H] AMPA); type: cell membranes, Rattus norvegicus, Wistar, Cerebral cortex, Membrane; settings: Not Active = under 50% inhibition at 10 µM
[3] = target: T2, Leukotriene C4 synthase (Cavia porcellus, UniProt A6XA80); type: tissue-based, Lung;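 also: enzyme inhibition assay of leukotriene C4 synthase, using LTA4 as the substrate; in other assays of this panel Not Active means under 50% inhibition at 10 µM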
T2 sequence (A6XA80 whole entry): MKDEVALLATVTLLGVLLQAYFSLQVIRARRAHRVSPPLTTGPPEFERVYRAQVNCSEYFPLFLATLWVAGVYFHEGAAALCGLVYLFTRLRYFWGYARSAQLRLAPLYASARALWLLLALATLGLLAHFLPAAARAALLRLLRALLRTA

[4] = target: T3, Calcitonin receptor (Homo sapiens, UniProt P30988); type: cell membranes, Membrane; settings: t47d; also: in other assays of this panel Not Active means under 50% inhibition at 10 µM
T3 sequence (P30988 whole entry): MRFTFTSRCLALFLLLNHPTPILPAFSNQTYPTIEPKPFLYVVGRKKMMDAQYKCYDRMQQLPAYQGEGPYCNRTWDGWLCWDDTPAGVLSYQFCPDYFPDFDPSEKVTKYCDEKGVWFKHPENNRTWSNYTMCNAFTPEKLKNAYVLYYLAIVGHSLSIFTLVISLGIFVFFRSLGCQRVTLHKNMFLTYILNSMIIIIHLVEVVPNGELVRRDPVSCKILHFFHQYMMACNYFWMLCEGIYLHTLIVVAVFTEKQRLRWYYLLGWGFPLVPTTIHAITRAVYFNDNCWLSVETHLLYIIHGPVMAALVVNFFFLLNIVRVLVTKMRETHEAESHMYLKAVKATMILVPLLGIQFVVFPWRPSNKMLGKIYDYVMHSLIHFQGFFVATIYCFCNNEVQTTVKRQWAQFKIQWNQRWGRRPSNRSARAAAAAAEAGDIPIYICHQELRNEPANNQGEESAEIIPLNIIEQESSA

[5] = target: T4, Alpha-1D adrenergic receptor (Homo sapiens, UniProt P25100); type: cell membranes, HEK293, Membrane; settings: hek293; also: in other assays of this panel Not Active means under 50% inhibition at 10 µM
T4 sequence (P25100 whole entry): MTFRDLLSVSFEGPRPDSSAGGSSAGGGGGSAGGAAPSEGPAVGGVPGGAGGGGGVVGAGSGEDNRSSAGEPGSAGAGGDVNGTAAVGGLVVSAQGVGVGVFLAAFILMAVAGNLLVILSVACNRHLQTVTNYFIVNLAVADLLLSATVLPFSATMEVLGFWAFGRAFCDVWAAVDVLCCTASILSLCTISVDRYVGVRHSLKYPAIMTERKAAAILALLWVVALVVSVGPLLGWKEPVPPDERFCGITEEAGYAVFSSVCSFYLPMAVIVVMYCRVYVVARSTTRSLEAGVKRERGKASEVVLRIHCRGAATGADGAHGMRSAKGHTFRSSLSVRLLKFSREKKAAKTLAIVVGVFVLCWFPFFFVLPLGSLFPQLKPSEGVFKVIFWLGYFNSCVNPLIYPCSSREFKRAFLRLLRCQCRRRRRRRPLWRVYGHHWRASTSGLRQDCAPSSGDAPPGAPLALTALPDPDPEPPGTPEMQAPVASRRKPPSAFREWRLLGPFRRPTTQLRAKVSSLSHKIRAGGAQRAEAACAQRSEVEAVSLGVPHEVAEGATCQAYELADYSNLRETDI

[6] = DRUGMATRIX: Sodium/nucleoside co-transporter radioligand binding (ligand: nitrobenzylthioinosine); type: cell membranes, Cavia porcellus, Dunkin-Hartley, Cerebral cortex, Membrane; settings: Not Active = under 50% inhibition at 10 µM
[7] = target: Substance-P receptor (Homo sapiens, UniProt P25103); type: cell membranes, CHO, Membrane; settings: cho; also: in other assays of this panel Not Active means under 50% inhibition at 10 µM
Substance-P receptor, sequence (P25103 whole entry): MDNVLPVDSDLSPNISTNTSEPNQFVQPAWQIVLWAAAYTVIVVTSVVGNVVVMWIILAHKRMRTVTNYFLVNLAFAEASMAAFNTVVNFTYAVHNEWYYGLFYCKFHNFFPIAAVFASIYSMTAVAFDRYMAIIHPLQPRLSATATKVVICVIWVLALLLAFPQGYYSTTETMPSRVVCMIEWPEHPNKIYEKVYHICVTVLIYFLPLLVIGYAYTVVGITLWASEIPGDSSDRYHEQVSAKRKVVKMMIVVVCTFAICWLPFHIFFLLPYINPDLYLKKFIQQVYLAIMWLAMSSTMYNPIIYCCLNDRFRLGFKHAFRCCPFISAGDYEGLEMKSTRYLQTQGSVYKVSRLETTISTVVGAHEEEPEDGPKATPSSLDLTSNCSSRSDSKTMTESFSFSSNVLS

[8] = DRUGMATRIX: Phorbol Ester radioligand binding (ligand: [3H] PDBu); type: cell membranes, Mus musculus, ICR, Brain, Membrane; settings: Not Active = under 50% inhibition at 10 µM

COC(=O)Nc1nc2ccc([S+]([O-])c3ccccc3)cc2[nH]1 (stereo not given) [OXFENDAZOLE]
Not Active: IC50 [1] | IC50 [2] | Ki [2] | IC50 [3] | IC50 [4] | IC50 [5] | IC50 [6] | Ki [6] | IC50 [7] | IC50 [8] | Ki [8]

CC(=O)O[C@H]1C(=O)[C@@]2(C)[C@H]([C@H](OC(=O)c3ccccc3)[C@]3(O)C[C@H](OC(=O)[C@H](O)[C@@H](NC(=O)c4ccccc4)c4ccccc4)C(C)=C1C3(C)C)[C@]1(OC(C)=O)CO[C@@H]1C[C@@H]2O [PACLITAXEL]
Not Active: IC50 [1] | IC50 [2] | Ki [2] | IC50 [3] | IC50 [4] | IC50 [5] | IC50 [6] | Ki [6] | IC50 [7] | IC50 [8] | Ki [8]

C[n+]1ccc(-c2cc[n+](C)cc2)cc1.[Cl-].[Cl-] [PARAQUAT DICHLORIDE]
Not Active: IC50 [1] | IC50 [2] | Ki [2] | IC50 [3] | IC50 [4] | IC50 [5] | IC50 [6] | Ki [6] | IC50 [7] | IC50 [8] | Ki [8]

CC(C)NCC(O)COc1cccc2[nH]ccc12 (stereo not given) [PINDOLOL]
Not Active: IC50 [1] | IC50 [2] | Ki [2] | IC50 [3] | IC50 [4] | IC50 [5] | IC50 [6] | Ki [6] | IC50 [7] | IC50 [8] | Ki [8]

CCn1cc(C(=O)O)c(=O)c2cnc(N3CCCC3)nc21 [PIROMIDIC ACID]
Not Active: IC50 [1] | IC50 [2] | Ki [2] | IC50 [3] | IC50 [4] | IC50 [5] | IC50 [6] | Ki [6] | IC50 [7] | IC50 [8] | Ki [8]

C[n+]1ccccc1/C=N/O.[Cl-] [PRALIDOXIME CHLORIDE]
Not Active: IC50 [1] | IC50 [2] | Ki [2] | IC50 [3] | IC50 [4] | IC50 [5] | IC50 [6] | Ki [6] | IC50 [7] | IC50 [8] | Ki [8]

C[C@]12C=CC(=O)C=C1CC[C@@H]1[C@@H]2[C@@H](O)C[C@@]2(C)[C@H]1CC[C@]2(O)C(=O)CO [PREDNISOLONE]
Not Active: IC50 [1] | IC50 [2] | Ki [2] | IC50 [3] | IC50 [4] | IC50 [5] | IC50 [6] | Ki [6] | IC50 [7] | IC50 [8] | Ki [8]

CC(=O)[C@H]1[C@H](C#N)C[C@H]2[C@@H]3CC=C4C[C@@H](O)CC[C@]4(C)[C@H]3CC[C@@]21C [PREGNENOLONE CARBONITRILE]
Not Active: IC50 [1] | IC50 [2] | Ki [2] | IC50 [3] | IC50 [4] | IC50 [5] | IC50 [6] | Ki [6] | IC50 [7] | IC50 [8] | Ki [8]

CCCN(CCC)S(=O)(=O)c1ccc(C(=O)O)cc1 [PROBENECID]
Not Active: IC50 [1] | IC50 [2] | Ki [2] | IC50 [3] | IC50 [4] | IC50 [5] | IC50 [6] | Ki [6] | IC50 [7] | IC50 [8] | Ki [8]

CCCNCC(O)COc1ccccc1C(=O)CCc1ccccc1 (stereo not given) [PROPAFENONE]
Not Active: IC50 [1] | IC50 [2] | Ki [2] | IC50 [3] | IC50 [4] | IC50 [5] | IC50 [6] | Ki [6] | IC50 [7] | IC50 [8] | Ki [8]

CCCOc1ccc(C(=O)OCCN(CC)CC)cc1N [PROPARACAINE]
Not Active: IC50 [1] | IC50 [2] | Ki [2] | IC50 [3] | IC50 [4] | IC50 [5] | IC50 [6] | Ki [6] | IC50 [7] | IC50 [8] | Ki [8]

CC(C)c1cccc(C(C)C)c1O [PROPOFOL]
Not Active: IC50 [1] | IC50 [2] | Ki [2] | IC50 [3] | IC50 [4] | IC50 [5] | IC50 [6] | Ki [6] | IC50 [7] | IC50 [8] | Ki [8]

C[C@@H]1O[C@@H](O[C@@H]2C=C3CC[C@@H]4[C@H](CC[C@]5(C)[C@@H](c6ccc(=O)oc6)CC[C@]45O)[C@@]3(C)CC2)[C@H](O)[C@H](O)[C@H]1O [PROSCILLARIDIN]
Not Active: IC50 [1] | IC50 [2] | Ki [2] | IC50 [3] | IC50 [4] | IC50 [5] | IC50 [6] | Ki [6] | IC50 [7] | IC50 [8] | Ki [8]

Oc1cccc(O)c1O [PYROGALLOL]
Not Active: IC50 [1] | IC50 [2] | Ki [2] | IC50 [3] | IC50 [4] | IC50 [5] | IC50 [6] | Ki [6] | IC50 [7] | IC50 [8] | Ki [8]

AURANOFIN
Not Active: IC50 [1] | Ki [1] | IC50 [2] | Ki [2] | IC50 [3] | Ki [3] | IC50 [4] | Ki [4] | IC50 [5] | Ki [5] | IC50 [6] | Ki [6] | IC50 [7] | Ki [7] | IC50 [8] | Ki [8]
